The results in this text go back to patent US20250127699A1, “One Pot Process for Preparing 'Grit-Free' Solid Cleansing Compositions” (GALAXY SURFACTANTS LTD., priority 2023, published 2025).

Common to all, as to assay: Minimum inhibitory concentration
Common to all, as to format: cell-based
Common to all, as to settings: at pH 5.5, 1% solution

Experiment [1] deals with Malassezia furfur ATCC 14521. An excerpt:
(§1) These gentle antimicrobials are well-established in personal care industry for their skin and scalp care benefits that stem from their broad range of antimicrobial activity. These are mostly deployed in a variety of ‘liquid’ wash formulations (body wash/hair wash) and sometimes in ‘leave-on’ creams and lotions (anti-acne). […] These two lipidated glycines, alone as well as when combined together, show remarkable activity against Candida albicans and Candida glabrata yeast (vaginal candidiasis, the yeast infection) and Gardnerella vaginalis (a Gram-variable bacterium that is a causative microbe for bacterial vaginosis). […] These two N-acyl glycines, akin to skin fatty acids, are devoid of any structural feature, like halogen atom or a heterocycle, that can be a potential hazard to the environment and living systems. […] The N-acyl glycine alone or in combination can be used up to 4.0% by weight of the total composition. The traditional environmentally toxic chlorinated antimicrobials for cleansing hygiene bars such as Chlorhexidne, Triclosan, Chloroxylenol, Climbazole, Triclocarban (banned in 2017) or other traditional anti-dandruff (antifungal) agents like Climbazole or Octopirox (monoethanol amine salt of piroctone), Zinc pyrithion (now banned in EU) etc. generate unsalvageable waste at every step of the multistep syntheses. In contrast to the facts (hazardous synthesis and toxicity) of traditional antimicrobials for solid cleansers, the lipidated glycines, that are part of solid compositions of the present invention, are manufactured by green chemistry without generating any unsalvageable/non-disposable waste as taught by IN patent 362888. Also, it is to be noted that N-acyl glycines are biodegradable and environmentally benign. These two lipidated glycines (Formula I and Formula II) are organic acids and by adding them in the second stage of processing when the mass of the first stage is being kneaded with limited amount of water in a sigma blender, helps to achieve the desired pH of the final solid cleanser. pH of the final solid cleanser can be brought down from 6.0 to 4.0 by incorporating these acyl glycines at an amount of about 0.5% to 4.0% of the total composition. The two N-acyl glycines can be used individually or in a combination. Examples 1 to 9 deploy either N-capryloyl glycine or N-undecylenoyl glycine, however, Example 10 to 13 use both of N-capryloyl glycine and N-undecylenoyl glycine. Higher % of capryloyl glycine (around 3.0% of the total composition) results in lower pH that is intended for anti-acne or feminine intimate hygiene wash as exemplified in Example 3. Minimum inhibitory concentrations of capryloyl glycine (CG) and undecylenoyl glycine (UG) and their combination (CG-UG) in 1:1 molar ratio using 1% solution at pH 5.5 are given in Table 1. […] The MIC numbers (less than 0.1%) for the N-acyl glycines against Gardnerella bacterium are extremely good. […] The preferred antimicrobials for the solid cleansers of the present invention are the combination of N-capryloyl glycine and N-undecylenoyl glycine in the molar ratio of 1:1.

In experiment [2] the test system is Corynebacterium xerosis ATCC 373.
From the text: as §1

Experiment [3] deals with Staphylococcus aureus ATCC 6538.
From the text: as §1

Experiment [4] deals with Staphylococcus epidermidis NCIM 2493.
From the text: as §1

Experiment [5] concerns Gardnerella vaginalis ATCC 14018.
From the text: as §1

Experiment [6] concerns Staphylococcus hominis MTCC 8980.
From the text: as §1

Experiment [7] relates to Propionibacterium acnes MTCC 1951.
From the text: as §1

Experiment [8] relates to Burkholderia cepacia ATCC 25416.
From the text: as §1

For experiment [9], the system named is Malassezia restricta ATCC MYA 4611.
From the text: as §1

Experiment [10] concerns Candida glabrata ATCC 66032.
From the text: as §1

In experiment [11] the test system is Candida albicans ATCC 10231.
From the text: as §1

The test system of experiment [12] is Aspergillus niger ATCC 16404.
From the text: as §1

In experiment [13] the test system is Escherichia coli ATCC 8739.
From the text: as §1

In experiment [14] the test system is Micrococcus luteus NCIM 2103.
From the text: as §1

For experiment [15], the system named is Pseudomonas aeruginosa ATCC 15442.
From the text: as §1

As for `CCCCCCCC(=O)NCC(=O)O` [CG, N-capryloyl glycine], the “Minimum Inhibitory Concentration” value in [1] is on record as 0.5%; in experiment [2] it was 1. %; in [3], 1%; in experiment [4] it was 1%; in experiment [5], 0.09%; in experiment [6], 0.3%. In addition, the “Minimum Inhibitory Concentration” value is listed as 1% in experiment [7]; 1% in experiment [8]; 0.4% in experiment [9]; 1% in experiment [10]; 0.6% in experiment [11]; 1% in experiment [12]. For the same compound, the results for the “Minimum Inhibitory Concentration” value in [13], in experiment [14] and in experiment [15] were 0.7%, 1% and 1%, respectively.

As to `C=CCCCCCCCCC(=O)NCC(=O)O` [UG, N-undecylenoyl glycine], the “Minimum Inhibitory Concentration” value in [1] is recorded as 0.5%; in experiment [2], 0.7%; in experiment [3] it was 0.6%; in experiment [4], 0.4%; in experiment [5] it was 0.06%; in [6] it was 0.2%. For the same compound, the “Minimum Inhibitory Concentration” value in experiment [7] turned out to be 1%; in experiment [8], 1%; in experiment [9], 0.4%; in [10] it was 0.9%; in [11], 1%; in [12], 1%. The results for the “Minimum Inhibitory Concentration” value in [13], in [14] and in [15] were 0.9%, 0.5% and 1%, respectively.
